Experimental data taken from ChEMBL document CHEMBL1201862, “PubChem BioAssay data set” (2004).
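A five-concentration, 48-hour dose response in 96-well plates underlies each endpoint, interpolated linearly between surrounding concentrations. Here, GI50 denotes the concentration required for 50% inhibition of growth.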 Active and inactive are the calls of the source. Rule as the data show it: active = GI50 up to about 1.1 µM and inactive = higher.

Legend:
Assay in all cases: DTP human tumour cell line panel, 48 h
[1] = test system: MDA-MB-231
[2] = test system: SF-539
[3] = test system: U-251
[4] = test system: COLO 205
[5] = test system: SNB-75
[6] = test system: CAKI-1
[7] = test system: UACC-62
[8] = test system: UO-31
[9] = test system: SNB-19
[10] = test system: NCI-H226
[11] = test system: KM12
[12] = test system: A549
[13] = test system: RPMI-8226
[14] = test system: TK-10
[15] = test system: K562
[16] = test system: M14
[17] = test system: OVCAR-3
[18] = test system: ACHN
[19] = test system: A498
[20] = test system: MDA-MB-435
[21] = test system: DU-145
[22] = test system: OVCAR-4
[23] = test system: MOLT-4
[24] = test system: 786-0
[25] = test system: HOP-62
[26] = test system: HOP-92
[27] = test system: MDA-N
[28] = test system: SK-OV-3
[29] = test system: MCF7
[30] = test system: UACC-257
[31] = test system: T47D
[32] = test system: OVCAR-5
[33] = test system: PC-3
[34] = test system: SF-268
[35] = test system: LOX IMVI
[36] = test system: SW-620
[37] = test system: HCT-15
[38] = test system: HCC 2998
[39] = test system: CCRF-CEM
[40] = test system: SN12C
[41] = test system: NCI/ADR-RES
[42] = test system: EKVX
[43] = test system: SF-295
[44] = test system: SK-MEL-2
[45] = test system: HCT-116
[46] = test system: SK-MEL-5
[47] = test system: SK-MEL-28
[48] = test system: Hs-578T
[49] = test system: RXF 393
[50] = test system: NCI-H522
[51] = test system: SR
[52] = test system: Malme-3M
[53] = test system: HL-60
[54] = test system: NCI-H23
[55] = test system: NCI-H460
[56] = test system: IGROV-1
[57] = test system: HT-29
[58] = test system: OVCAR-8
[59] = test system: BT-549

With `Cc1cccc(-c2cc(=S)c3cc(N4CCCC4)ccc3[nH]2)c1` the GI50 [1] was > 100 µM (inactive), the GI50 [2] was > 100 µM (inactive) and the GI50 [3] was > 100 µM (inactive). The GI50 [4] was > 100 µM (inactive), the GI50 [5] was > 100 µM (inactive) and the GI50 [6] was > 100 µM (inactive). For the same compound, the GI50 [7] was > 100 µM (inactive), the GI50 [8] was > 100 µM (inactive) and the GI50 [9] was > 100 µM (inactive). The GI50 [10] was > 100 µM (inactive), the GI50 [11] was > 100 µM (inactive) and the GI50 [12] was > 100 µM (inactive). The GI50 [13] was > 100 µM (inactive), the GI50 [14] was > 100 µM (inactive) and the GI50 [15] was > 100 µM (inactive). The GI50 [16] was > 100 µM (inactive), the GI50 [17] was > 100 µM (inactive) and the GI50 [18] was > 100 µM (inactive). The GI50 [19] was > 100 µM (inactive), the GI50 [20] was > 100 µM (inactive) and the GI50 [21] was > 100 µM (inactive). The GI50 [22] was > 100 µM (inactive), the GI50 [23] was > 100 µM (inactive) and the GI50 [24] was > 100 µM (inactive). The GI50 [25] was > 100 µM (inactive), the GI50 [26] was > 100 µM (inactive) and the GI50 [27] was > 100 µM (inactive). The GI50 [28] was > 100 µM (inactive), the GI50 [29] was > 100 µM (inactive) and the GI50 [30] was > 100 µM (inactive). For the same compound, the GI50 [31] was > 100 µM (inactive), the GI50 [32] was > 100 µM (inactive) and the GI50 [33] was > 100 µM (inactive). For the same compound, the GI50 [34] was > 100 µM (inactive), the GI50 [35] was > 100 µM (inactive) and the GI50 [36] was > 100 µM (inactive). The GI50 [37] was > 100 µM, the GI50 [38] was > 100 µM (inactive) and the GI50 [39] was > 100 µM (inactive). For the same compound, the GI50 [40] was > 100 µM (inactive), the GI50 [41] was > 100 µM (inactive) and the GI50 [42] was > 100 µM (inactive). The GI50 [43] was > 100 µM (inactive), the GI50 [44] was > 100 µM (inactive) and the GI50 [45] was > 100 µM (inactive). For the same compound, the GI50 [46] was > 100 µM (inactive), the GI50 [47] was > 100 µM (inactive) and the GI50 [48] was > 100 µM (inactive). For the same compound, the GI50 [49] was > 100 µM (inactive).
In the case of `CCOP(=O)(OCC)/C(=C\n1ccc(=O)[nH]c1=S)C(=O)OC`, the GI50 [1] is reported as > 100 µM (inactive), the GI50 [2] is reported as > 100 µM (inactive) and the GI50 [50] is reported as > 100 µM (inactive). For the same compound, the GI50 [3] was > 100 µM (inactive), the GI50 [4] was > 100 µM (inactive) and the GI50 [5] was > 100 µM (inactive). The GI50 [6] was > 100 µM (inactive), the GI50 [7] was > 100 µM (inactive) and the GI50 [8] was > 100 µM (inactive). For the same compound, the GI50 [10] was > 100 µM (inactive), the GI50 [11] was > 100 µM (inactive) and the GI50 [12] was > 100 µM (inactive). For the same compound, the GI50 [13] was > 100 µM (inactive), the GI50 [51] was > 100 µM (inactive) and the GI50 [15] was > 100 µM (inactive). The GI50 [16] was > 100 µM (inactive), the GI50 [18] was > 100 µM (inactive) and the GI50 [19] was > 100 µM (inactive). For the same compound, the GI50 [20] was > 100 µM (inactive), the GI50 [21] was > 100 µM (inactive) and the GI50 [52] was > 100 µM (inactive). For the same compound, the GI50 [22] was > 100 µM (inactive), the GI50 [23] was > 100 µM (inactive) and the GI50 [24] was > 100 µM (inactive). The GI50 [25] was > 100 µM (inactive), the GI50 [53] was > 100 µM (inactive) and the GI50 [27] was > 100 µM (inactive). For the same compound, the GI50 [28] was > 100 µM (inactive), the GI50 [29] was > 100 µM (inactive) and the GI50 [30] was > 100 µM (inactive). The GI50 [31] was > 100 µM (inactive), the GI50 [54] was > 100 µM (inactive) and the GI50 [32] was > 100 µM (inactive). For the same compound, the GI50 [33] was > 100 µM (inactive), the GI50 [55] was > 100 µM (inactive) and the GI50 [56] was > 100 µM (inactive). For the same compound, the GI50 [34] was > 100 µM (inactive), the GI50 [35] was > 100 µM (inactive) and the GI50 [36] was > 100 µM (inactive). For the same compound, the GI50 [37] was > 100 µM, the GI50 [38] was > 100 µM (inactive) and the GI50 [39] was > 100 µM (inactive). The GI50 [40] was > 100 µM (inactive), the GI50 [41] was > 100 µM (inactive) and the GI50 [42] was > 100 µM (inactive). For the same compound, the GI50 [57] was > 100 µM (inactive), the GI50 [43] was > 100 µM (inactive) and the GI50 [44] was > 100 µM (inactive). The GI50 [45] was > 100 µM (inactive), the GI50 [46] was > 100 µM (inactive) and the GI50 [47] was > 100 µM (inactive). For the same compound, the GI50 [48] was 66.2 µM (inactive), the GI50 [58] was > 100 µM (inactive) and the GI50 [49] was > 100 µM (inactive).
In the case of `C[C@@H](Br)[C@@H]1CC[C@H]2c3[nH]c4ccccc4c3CCN2C1`, the GI50 [1] is reported as 16.1 µM (inactive), the GI50 [50] is reported as 13.2 µM (inactive) and the GI50 [3] is reported as 21.5 µM (inactive). For the same compound, the GI50 [4] was 13.5 µM (inactive), the GI50 [5] was 18.5 µM (inactive) and the GI50 [6] was 16.6 µM (inactive). For the same compound, the GI50 [7] was 14.5 µM (inactive), the GI50 [8] was 24.8 µM (inactive) and the GI50 [9] was 20.1 µM (inactive). The GI50 [10] was 28.6 µM (inactive), the GI50 [11] was 14.5 µM (inactive) and the GI50 [12] was 34.4 µM (inactive). The GI50 [13] was 13.6 µM (inactive), the GI50 [14] was 31.7 µM (inactive) and the GI50 [51] was 16.5 µM (inactive). For the same compound, the GI50 [15] was 15.5 µM (inactive), the GI50 [16] was 19.8 µM (inactive) and the GI50 [17] was 15.6 µM (inactive). The GI50 [18] was 33.8 µM (inactive), the GI50 [19] was 31.2 µM (inactive) and the GI50 [20] was 16.3 µM (inactive). The GI50 [21] was 29.3 µM (inactive), the GI50 [52] was 18.8 µM (inactive) and the GI50 [22] was 28 µM (inactive). For the same compound, the GI50 [23] was 17.7 µM (inactive), the GI50 [24] was 18.6 µM (inactive) and the GI50 [25] was 18.6 µM (inactive). The GI50 [53] was 20 µM (inactive), the GI50 [26] was 18.1 µM (inactive) and the GI50 [27] was 19.4 µM (inactive). For the same compound, the GI50 [28] was 24.7 µM (inactive), the GI50 [29] was 23.7 µM (inactive) and the GI50 [30] was 27.4 µM (inactive). For the same compound, the GI50 [31] was 16.5 µM (inactive), the GI50 [54] was 20.5 µM (inactive) and the GI50 [32] was 34.4 µM (inactive). For the same compound, the GI50 [33] was 22.4 µM (inactive), the GI50 [55] was 22.5 µM (inactive) and the GI50 [56] was 12.1 µM (inactive). The GI50 [34] was 26.8 µM (inactive), the GI50 [35] was 16.5 µM (inactive) and the GI50 [36] was 21.8 µM (inactive). For the same compound, the GI50 [37] was 17.5 µM, the GI50 [38] was 16 µM (inactive) and the GI50 [39] was 17.5 µM (inactive). For the same compound, the GI50 [41] was 20.2 µM (inactive), the GI50 [42] was 33.1 µM (inactive) and the GI50 [57] was 25 µM (inactive). For the same compound, the GI50 [43] was 19.5 µM (inactive), the GI50 [44] was 20.6 µM (inactive) and the GI50 [46] was 15.9 µM (inactive). For the same compound, the GI50 [47] was 24.4 µM (inactive), the GI50 [48] was 13.3 µM (inactive) and the GI50 [58] was 26.9 µM (inactive). The GI50 [49] was 20.4 µM (inactive).
In the case of `COc1ccc(-c2oc3cc(OC)ccc3c(=O)c2O)cc1`, the GI50 [1] is reported as 43.4 µM (inactive), the GI50 [50] is reported as 3.18 µM (inactive) and the GI50 [3] is reported as 3.31 µM (inactive). For the same compound, the GI50 [4] was > 100 µM (inactive), the GI50 [6] was 2.53 µM (inactive) and the GI50 [7] was 5.19 µM (inactive). The GI50 [9] was > 100 µM (inactive), the GI50 [13] was > 23.1 µM (inactive) and the GI50 [14] was > 100 µM (inactive). The GI50 [51] was 3.57 µM (inactive), the GI50 [16] was > 25.5 µM (inactive) and the GI50 [59] was 0.668 µM (active). For the same compound, the GI50 [19] was > 100 µM (inactive), the GI50 [20] was > 27.7 µM (inactive) and the GI50 [52] was > 31.6 µM (inactive). For the same compound, the GI50 [22] was 3.88 µM (inactive), the GI50 [23] was 2.66 µM (inactive) and the GI50 [24] was 9.02 µM (inactive). For the same compound, the GI50 [25] was 3.7 µM (inactive), the GI50 [26] was 3.42 µM (inactive) and the GI50 [27] was > 100 µM (inactive). The GI50 [29] was 3.43 µM (inactive), the GI50 [30] was > 100 µM (inactive) and the GI50 [31] was 9.42 µM (inactive). For the same compound, the GI50 [33] was > 100 µM (inactive), the GI50 [55] was 3.37 µM (inactive) and the GI50 [56] was 4.25 µM (inactive). The GI50 [34] was 5.13 µM (inactive), the GI50 [35] was 4.12 µM (inactive) and the GI50 [37] was 3.63 µM. The GI50 [38] was > 10 µM (inactive), the GI50 [42] was > 100 µM (inactive) and the GI50 [57] was > 100 µM (inactive). The GI50 [43] was 4.79 µM (inactive), the GI50 [45] was 4.15 µM (inactive) and the GI50 [46] was > 100 µM (inactive). The GI50 [47] was > 25.4 µM (inactive), the GI50 [48] was 1.54 µM (inactive) and the GI50 [49] was 3.15 µM (inactive).
